Results taken from patent US20250115595A1, “INHIBITORS OF HYPOXIA-INDUCIBLE FACTORS” (The Johns Hopkins University, priority 2021, published 2025).

Columns and labels:
[1] = test system: HIF transcriptional activity; test: Luciferase reporter assay (FLuc/RLuc) in hypoxic Hep3B-c1 cells; format: cell-based; settings: Homo sapiens, FLuc/RLuc ratio, 1% O2, 24 hours
Experimental: The NCI CellMiner database contains expression data on 25,698 mRNAs in 60 human cancer cell lines that were exposed to 21,770 chemical compounds (Reinhold W C, et. al., Cancer Res. 2012; 72(14):3499-3511). The CellMiner database was interrogated for compounds that induced changes in gene expression highly correlated with those induced by acriflavine, but would be structurally unrelated to acriflavine. Compounds that satisfied these criteria were analyzed in Hep3B-c1 cells (Zhang H. et. al., Proc Natl Acad Sci USA. 2008; 105(50):19579-19586), which are stably transfected with: HIF dependent reporter plasmid p2.1, in which firefly luciferase (FLuc) coding sequences are located downstream from a hypoxia response element (HRE) and a basal SV40 promoter; and control reporter pSVR, in which Renilla luciferase (RLuc) coding sequences are downstream of the basal SV40 promoter only (FIG. 1A).
Hep3B-c1 cells (Zhang 2008), which are stably co-transfected with reporter plasmids p2.1, a hypoxia-inducible firefly luciferase reporter gene containing a hypoxia response element (HRE), and pSVR, a constitutively expressed Renilla luciferase reporter gene, were seeded on 24-well plates. Cells were treated with compounds the following day and exposed to 20% or 1% O2 for 24 hours. For transient transfection, cells were seeded, transfected with the listed plasmids and compounds, and exposed to 20% or 1% O2 for 24 hours. FLuc/RLuc ratios were determined using the Dual Luciferase Reporter Assay System (Promega) and the VICTOR Nivo plate reader (PerkinElmer).

[2] = test system: HIF-regulated angiogenic genes; test: mRNA expression in hypoxic HUVECs; format: cell-based, human; settings: 1 or 10 μM, 4 hours
Source text: Vascular endothelial cells also secrete angiogenic mediators that contribute to the progression of diabetic eye disease (Y. Qin et al., Sci Adv 8, eabm1896 (2022)). Exposure of human umbilical vein endothelial cells (HUVECs) to hypoxia induced HIF-1α and HIF-2α protein accumulation, which was inhibited by 32-134D (FIG. 30). […] Of note, ANGPT2 and VE-PTP, two emerging targets for the treatment of diabetic eye disease, are both expressed specifically by vascular cells (G. Fachinger, et al., Oncogene 18, 5948-5953 (1999); P. C. Maisonpierre et al., Science 277, 55-60 (1997)).
Reverse transcription and quantitative real-time PCR: Total RNA was isolated from cultured cells or retinas with PureLink™ RNA Mini Kit (Invitrogen #12183025), and cDNA was prepared with MuLV Reverse Transcriptase (Applied Biosystems). Quantitative real-time PCR was performed with Power SYBR Green PCR Master Mix (Applied Biosystems) and MyiQ Real-Time PCR Detection System (Bio-Rad). Normalization was done using cyclophilin A for mouse tissue and human cell lines.

C57BL/6 mice = test: Safety after systemic (IP) dosing: fundus/angiography, ERG, tissue histology; format: in vivo, mouse
Experimental: Fundus photos and fluorescein angiographic images of the retina of C57BL/6 mice on day 30 following 5 daily intraperitoneal (IP) injections (day 0 to day 5) with 32-134D at 40 or 80 mg/kg compared to vehicle control (FIG. 17).
ERG measurements taken in C57BL/6 mice at day 7 (D7) and day 14 (D14) following 5 daily IP injections (day 0 to day 5) with vehicle control (Veh) or 32-134D at 20, 40, or 80 mg/kg/day.
To survey for possible organ damage following systemic administration, three-month-old mice were treated with the 80 mg/kg/day of 32-134D by IP injection for five consecutive days (days 0-4). On day 30, mice were sacrificed, perfused with PBS, and tissues were harvested and fixed in 4% paraformaldehyde (PFA). Harvested tissues included the brain, heart, muscle, liver, spleen, kidney, stomach, small intestine, and large intestine. Tissues were embedded with paraffin, sectioned at […], and stained with hematoxylin and eosin. Images were taken at 20× magnification.
Flash scotopic ERGs: All procedures were performed under dim red light. Mice were dark adapted overnight, anesthetized with ketamine (50 mg/kg) and xylazine (5 mg/kg) and pupils were dilated with a topical drop of tropicamide (1%). Scotopic ERG responses were measured using the Celeris ERG stimulator (Diagnosys, Lowell, MA) at flash intensities of 0.025, 0.25, 2.5, 7.96, and 79.06 cd/s/m2. ERGs were measured simultaneously from both eyes with a ground electrode placed into the forehead between the eyes and a reference electrode into the hip.
Fluorescein angiography in mice: To evaluate the effect of 32-134D on the retinal vasculature and vascular permeability, experimental animals were treated with 5 consecutive daily IP injections with 32-134D at 40 or 80 mg/kg. On day 30, mice were anesthetized using intramuscular injection with ketamine (50 mg/kg) and xylazine (5 mg/kg). Pupils were then dilated using 1% tropicamide eye drops and mice were placed on the imaging platform of the Phoenix Micron III retinal imaging microscope (Phoenix Research Laboratories, Pleasanton, CA). Goniovisc 2.5% (hypromellose; Sigma Pharmaceuticals, LLC, Monticello, IA) was applied liberally to keep the eye moist during imaging studies. Fundus photos were taken before administering 10 to 20 μl of 10% fluorescein sodium (Apollo Ophthalmics, Newport Beach, CA) IP injection. Rapid acquisition of fluorescein angiographic images was then performed for 5 minutes. Fluorescein leakage manifests as indistinct vascular borders progressing to diffusely hazy fluorescence. Fluorescein leakage was compared between different groups by quantifying the fluorescence intensities collected after 1, 2, and 3 minutes following fluorescein injection using ImageJ software (National Institutes of Health, Bethesda, MD).

[3] = 5 daily IP injections 20, 40 or 80 mg/kg/day, D7 and D14

Brc1ccc2c(-c3csc(-c4c[nH]c5c(Br)cccc45)n3)c[nH]c2c1 [Compound 32-134D, 4-(6-bromo-1H-indol-3-yl)-2-(7-bromo-1H-indol-3-yl)thiazole]
IC50 [1]: 2.5 µM | hypoxia-increased ANGPT2 and VEPTP mRNA expression [2]: inhibited | hypoxia-induced VEGF and ANGPTL4 mRNA expression [2]: effectively inhibited | tissue histology (brain, heart, muscle, liver, spleen, kidney, stomach, intestines) (C57BL/6 mice; 80 mg/kg/day IP for five days, day 30): no evidence of toxicity | ERG a-wave versus vehicle (C57BL/6 mice; [3]): no statistically significant difference | ERG b-wave versus vehicle (C57BL/6 mice; [3]): no statistically significant difference | fundus photos and fluorescein angiography of retina (C57BL/6 mice; 5 daily IP injections 40 or 80 mg/kg, day 30): intact retinal vasculature and absence of capillary leakage
